“Also recorded” adds a separate entry of the source. Structures can show the parent of a compound that is named as a salt.
Test system: CSV, LSD1p, SNAI1
Assay: Immunofluorescence of cancer cells from primary tumor micro-environment, mesenchymal CTC signature panel
Assay type: in vivo, mouse
Details: cancer cells from primary TME; % change relative to vehicle control
Experimental: FIG. 2 is a graphical and photographic representation showing the efficacy of dual phenelzine sulfate (phenelzine) and anti-PD1 antibody (PD1) therapy on circulating tumor cells (CTCs) and cancer stem cells (CSC) as well as tumor burden. A. Statistics of tumor volumes on day 15 post-treatment. A Mann-Whitney non-parametric t-test was used to compare control vs other groups (*p<0.02, **p<0.008). Group A=Control, Group C: PD1 (10 mg/kg), Group D: Phenelzine (40 mg/kg), Group F: PD1+Phenelzine. Illustration of the treatment protocol is also shown. […] Representative images for each dataset are shown. […] C. […] (a) Representative images for each dataset are shown. (b) Graph represents the TCFI values for CD133 TNFI for ALDH1A and TFI for ABCB5 measured using ImageJ to select the nucleus/cytoplasm minus background (n>20 individual cells, Group A=Control, Group C: PD1 (10 mg/kg), Group D: Phenelzine (40 mg/kg), Group F: PD1+Phenelzine).
FIG. 11 is a photographic and graphical representation showing triple therapy efficacy on CTC/CSC and tumor burden. […] (b) Graph represents the TCFI values for CD133 TNFI for ALDH1A and TFI for ABCB5 measured using ImageJ to select the nucleus/cytoplasm minus background (n>20 individual cells, Group A=Control, Group B: Abraxane (30 mg/kg), Group C: anti-PD1 (10 mg/kg), Group D: Phenelzine (40 mg/kg), Group E: Abraxane+PD1, Group F: PD1+Phenelzine, Group G: Abraxane+Phenelzine, Group H: Triple Therapy). […]
A total of 2×10^5 cells were injected per mouse into mammary gland in 50 μL of phosphate buffered saline (PBS). […] Tumors were measured using calipers and the tumor volumes (mm3) were calculated using the formula (length×width2)/2. ? arvested cells from primary tumors where then cytospun ? -treated with poly-1-lysine and fixed then stored in PBS for IFA Microscopy Analysis. […] Digital images were analysed using ImageJ software (ImageJ, NIH, Bethesda, Md., USA) to determine the either the Total Nuclear Fluorescent Intensity (TNFI), the Total Cytoplasmic Fluorescent Intensity (TCFI) or total Fluorescent Intensity (TFI).

NNCCc1ccccc1 (racemic) [phenelzine sulfate, (±)-2-phenylethylhydrazine]
SNAI1 expression: strong inhibition; also recorded: stronger inhibition | expression of CSV: strong inhibition; also recorded: stronger inhibition | nuclear expression of LSD1: strong inhibition; also recorded: stronger inhibition

Reference: patent US20210186905A1, “ENHANCING T-CELL FUNCTION AND TREATING A T-CELL DYSFUNCTIONAL DISORDER WITH A COMBINATION OF AN LSD INHIBITOR AND A PD-1 BINDING ANTAGONIST” (EpiAxis Therapeutic Pty Ltd, priority 2017, published 2021)
